Assay results reported in patent US5399748A, “Derivatives of aspartic acid and glutamic acid having anticholecystokinin activity” (James Black Foundation Limited, priority 1990, dated 1995).

Molecular target: T1, CCK-A (Cavia porcellus, UniProt Q63931)
T1 construct: Isolated, strip preparations were prepared from gall-bladders removed from male Dunkin-Hartley guinea-pigs; from tissue; host or cells: isolated gall-bladder strips of male Dunkin-Hartley guinea-pigs
T1 sequence (Q63931 1-430): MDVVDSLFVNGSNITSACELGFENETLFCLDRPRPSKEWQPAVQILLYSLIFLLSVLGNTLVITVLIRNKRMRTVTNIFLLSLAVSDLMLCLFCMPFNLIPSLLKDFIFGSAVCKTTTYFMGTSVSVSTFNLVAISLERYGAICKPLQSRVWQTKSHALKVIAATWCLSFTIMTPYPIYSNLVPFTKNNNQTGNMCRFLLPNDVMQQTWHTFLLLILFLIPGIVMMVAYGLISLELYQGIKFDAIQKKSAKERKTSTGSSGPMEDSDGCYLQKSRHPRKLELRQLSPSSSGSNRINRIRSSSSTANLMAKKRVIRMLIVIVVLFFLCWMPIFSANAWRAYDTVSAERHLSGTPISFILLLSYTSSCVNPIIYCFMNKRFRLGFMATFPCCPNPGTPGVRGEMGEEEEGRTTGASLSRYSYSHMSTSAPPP
Assay: CCK-receptor bioassay, isolated guinea-pig gall-bladder strips, CCK-8 as agonist
Format: cell-based, male Dunkin-Hartley guinea-pigs
Details: negative logarithm (base 10) of equilibrium dissociation constant (pKB), CCK-8 agonist, test compound incubated 60 minutes; for Kb: read-out: pK8 versus CCK (gallbladder) (converted)
Protocol: The compounds were assayed using the CCK-receptor bioassay as follows:
Isolated, strip preparations were prepared from gall-bladders removed from male Dunkin-Hartley guinea-pigs (250-500 g body weight) according to the method of La Morte, W. W., et al., J.P.E.T., 217, (3), 638-644 (1981).
The complete gall-bladder is removed and opened along the longitudinal axis. Strips measuring 3 mm in the longitudinal axis and 1 mm in the transverse axis are cut and then tied with cotton to stainless steel wires. The preparation is connected to a GRASS FTO3 isometric transducer under an initial loading tension of 1 g and is immersed in 20 mls of Krebs solution maintained at 37° C. and gassed with 95% O2 /5% CO2. The composition (mM) of the Krebs solution is as follows: Na^+ 143, K^+ 5.9, Ca^2+ 0.5, Mg^2+ 1.2, Cl^- 128, H2 PO4^- 2.2, HCO3^- 24.9, SO4^2- 1.2, dextrose 10. After 30 mins the preparation is washed. Drug addition begins after an initial 90 min stabilisation period. Responses are measured as changes in tension from that immediately prior to any drug addition. Single cumulative agonist concentration-effect curves, using CCK-8 as agonist, are obtained on each preparation in the absence and presence of test compound which has been incubated for 60 minutes. The antagonist activity of the test compound is estimated and expressed as the negative logarithm (base 10) of the equilibrium dissociation constants (pKB) using the modifications of standard competitive analysis described by Black et al., Br. J. Pharmacol.,86,571-579, (1985) and Shankley et al., Br. J. Pharmacol.,94,264-274 (1988).

| SMILES | Kb | pKB |
| --- | --- | --- |
| O=C(O)C[C@H](NS(=O)(=O)c1ccc2ccccc2c1)C(=O)N1CCc2ccccc2C1 [Example 21, 2-Naphthalenesulphonyl-L-aspartyl (1,2,3,4-tetrahydroisoquinolin)amide] | 7240 nM |  |
| O=C(O)C[C@@H](NS(=O)(=O)c1ccc2ccccc2c1)C(=O)NCCc1ccccc1 [Example 15, 2-Naphthalenesulphonyl-D-aspartyl (2-phenethyl)amide] | 1200 nM |  |
| COc1cc2cc(S(=O)(=O)N[C@@H](CC(=O)O)C(=O)NCCc3ccccc3)ccc2c(Cl)c1OC [Example 14, 5-Chloro-6,7-dimethoxynaphthalenesulphonyl-L-aspartyl (2-phenethyl)amide] | 617 nM |  |
| O=C(O)C[C@H](NS(=O)(=O)Cc1ccc2ccccc2c1)C(=O)NCCc1ccccc1 [Example 10, Naphthylmethanesulphonyl-L-aspartyl (2-phenethyl)amide] |  | 5.40 ± 0.18 |
| O=C(O)C[C@H](NS(=O)(=O)c1ccc2ccccc2c1)C(=O)NCCc1ccc(F)cc1 [Example 18, 2-Naphthalenesulphonyl-L-aspartyl (2(4-fluorophenethyl)amide)] | 269 nM |  |
| COc1ccc2cc(S(=O)(=O)N[C@@H](CC(=O)O)C(=O)NCCc3ccccc3)ccc2c1Cl [Example 13, 5-Chloro-6-methoxynaphthalenesulphonyl-L-aspartyl (2-phenethyl)amide] |  | 6.49 ± 0.38 |
| O=C(O)C[C@H](NS(=O)(=O)/C=C/c1ccccc1)C(=O)NCCc1ccccc1 [Example 22, 2-phenethenylsulphonyl-L-aspartyl (2-phenethyl)amide] |  | 6.27 ± 0.22 |
| O=C(O)C[C@H](NS(=O)(=O)c1ccc2ccccc2c1)C(=O)NCCc1ccccc1 [Example 1, 2-Naphthalenesulphonyl-L-aspartyl (2-phenethyl)amide] | 324 nM |  |
| NS(=O)(=O)c1ccc(CCNC(=O)[C@H](CC(=O)O)NS(=O)(=O)c2ccc3ccccc3c2)cc1 [Example 20, 2-Naphthalenesulphonyl-L-aspartyl (2-(4-sulphonamidophenethyl)amide)] | 11200 nM |  |
| O=C(O)C[C@H](NS(=O)(=O)CCc1ccccc1)C(=O)NCCc1ccccc1 [Example 7, 2-phenylethanesulphonyl-L-aspartyl (2-phenethyl)amide] | 3470 nM |  |
| COc1ccc(CCNC(=O)[C@H](CC(=O)O)NS(=O)(=O)c2ccc3ccccc3c2)cc1 [Example 19, Naphthalenesulphonyl-L-aspartyl (2-(4-methoxyphenethyl)amide)] | 1020 nM |  |
| O=C(O)C[C@H](NS(=O)(=O)c1ccc(Cl)c(Cl)c1)C(=O)NCCc1ccccc1 [Example 9, 3,4-Dichlorobenzenesulphonyl-L-aspartyl (2-phenethyl)amide] | 1700 nM |  |
| O=C(O)C[C@H](NS(=O)(=O)c1ccc2ccccc2c1)C(=O)NCCCc1ccccc1 [Example 23, 2 -Naphthalenesulphonyl-L-aspartyl (3-phenylpropyl)amide] | 105 nM |  |
| O=C(O)CC[C@H](NS(=O)(=O)c1ccc2ccccc2c1)C(=O)NCCc1ccccc1 [Example 16, 2-Naphthalenesulphonyl-L-glutamyl (2-phenethyl)amide] | 724 nM |  |
| COc1ccc2cc(S(=O)(=O)N[C@@H](CC(=O)O)C(=O)NCCc3ccccc3)ccc2c1 [Example 12, 6-Methoxynaphthalenesulphonyl-L-aspartyl (2-phenethyl)amide] | 257 nM |  |
